The values below are quoted from earlier work in patent US20250289807A1, “Inhibitors of ROCK2” (Graviton Bioscience BV, priority 2022, published 2025).

Data set [1] deals with mouse 3T3-L1 pre-adipocytes. As to conditions: cited from earlier work.
Data set [2] has as its system human adipose-derived stem cells. As to conditions: cited from earlier work.

In the case of `CC(C)NC(=O)COc1cccc(-c2nc(Nc3ccc4[nH]ncc4c3)c3ccccc3n2)c1` [KD025], the adipocyte differentiation result in data set [1] and in data set [2] was “down-regulated adipocyte differentiation” in each case.
